In the supplement of paper PMC12494721:

Key:
Settings in all cases: incubation time: 27 h, anaerobic, 37 °C
[1] = tested on: Ruminococcus gnavus DSM 108212; assay: fold change of 2-Phenylethylamine concentration vs plate DMSO controls (fold change (ratio)); higher = more amine produced
[2] = tested on: Klebsiella aerogenes DSM 30053; assay: fold change of Putrescine concentration vs plate DMSO controls (fold change (ratio)); higher = more amine produced
[3] = tested on: Klebsiella aerogenes DSM 30053; assay: fold change of Cadaverine concentration vs plate DMSO controls (fold change (ratio)); higher = more amine produced
[4] = tested on: Ruminococcus gnavus DSM 108212; assay: fold change of Tryptamine concentration vs plate DMSO controls (fold change (ratio)); higher = more amine produced
[5] = tested on: Ruminococcus gnavus DSM 108212; assay: growth (OD595) fold change vs plate DMSO controls (fold change (ratio)); higher = more growth
[6] = tested on: Klebsiella aerogenes DSM 30053; assay: as above
[7] = tested on: Klebsiella aerogenes DSM 30053; assay: fold change of Histamine concentration vs plate DMSO controls (fold change (ratio)); higher = more amine produced
Method: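 Dose-response follow-up: bacteria (E. coli IAI1, K. aerogenes DSM 30053, C. sporogenes DSM 1664, R. gnavus DSM 108212) were grown anaerobically in mGAM at 37 °C for 27 h with compound at 0.6125-20 µM. Amines were measured in the whole culture by targeted LC-MS/MS. Metabolite fold change and OD595 fold change are relative to plate DMSO controls; n=2 biological replicates. OD fold changes are not clipped, so slightly negative values mean no growth.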

[8] = tested on: Clostridium sporogenes DSM 1664; assay: fold change of Tryptamine concentration vs plate DMSO controls (fold change (ratio)); higher = more amine produced
[9] = tested on: Clostridium sporogenes DSM 1664; assay: growth (OD595) fold change vs plate DMSO controls (fold change (ratio)); higher = more growth
[10] = tested on: Escherichia coli IAI1; assay: fold change of Putrescine concentration vs plate DMSO controls (fold change (ratio)); higher = more amine produced
[11] = tested on: Escherichia coli IAI1; assay: fold change of Cadaverine concentration vs plate DMSO controls (fold change (ratio)); higher = more amine produced
[12] = tested on: Escherichia coli IAI1; assay: growth (OD595) fold change vs plate DMSO controls (fold change (ratio)); higher = more growth

COc1c(N2CCNC(C)C2)c(F)cc2c(=O)c(C(=O)O)cn(C3CC3)c12 (stereo unspecified) [Gatifloxacin]
Settings | fold change of 2-Phenylethylamine concentration, [1] | fold change of Cadaverine concentration, [3] | fold change of Histamine concentration, [7] | fold change of Putrescine concentration, [2] | fold change of Tryptamine concentration, [4] | growth, [5] | growth, [6]
0.6125 µM | 1.35 | 0.983 | 1.35 | 1.03 | 1.31 | 0.932 | 0.993
1.25 µM | 1.33 | 1.03 | 0.852 | 1.2 | 1.5 | 0.65 | 0.605
2.5 µM | 1.67 | 1.02 | 0.158 | 1.26 | 2.2 | 0.553 | 0.302
5 µM | 2.18 | 0.999 | 0.193 | 1.35 | 2.87 | 0.484 | 0.348
10 µM | 1.22 | 1 | 0.284 | 1.4 | 1.85 | 0.3 | 0.373
20 µM | 0.23 | 0.997 | 0.4 | 1.24 | 0.434 | 0.107 | 0.242

CC(=O)NC[C@H]1CN(c2ccc(N3CCOCC3)c(F)c2)C(=O)O1 [Linezolid]
Settings | fold change of Tryptamine concentration, [8] | growth, [9]
0.6125 µM | 0.966 | 1.14
1.25 µM | 0.923 | 1.05
2.5 µM | 0.894 | 1.06
5 µM | 0.77 | 0.814
10 µM | 0.51 | 0.563
20 µM | 0.0345 | -0.0339

COc1cccc(OC)c1C(=O)N[C@@H]1C(=O)N2[C@@H]1SC(C)(C)[C@@H]2C(=O)O [Methicillin sodium]
Settings | fold change of Tryptamine concentration, [8] | growth, [9]
0.6125 µM | 1.02 | 0.843
1.25 µM | 1 | 0.888
2.5 µM | 1.01 | 0.839
5 µM | 0.915 | 0.95
10 µM | 0.779 | 0.469
20 µM | 0.417 | 0.469

Cc1ncc([N+](=O)[O-])n1CCO [Metronidazole]
Settings | fold change of Tryptamine concentration, [8] | growth, [9]
0.6125 µM | 0.744 | 1.05
1.25 µM | 0.758 | 1.12
2.5 µM | 0.55 | 1.08
5 µM | 0.0225 | -0.0178
10 µM | 0.0206 | -0.0224
20 µM | 0.0183 | -0.023

CO[C@@]12[C@H](COC(N)=O)C3=C(C(=O)C(C)=C(N)C3=O)N1C[C@@H]1N[C@@H]12 [Mitomycin C]
Settings | fold change of Cadaverine concentration, [11] | fold change of Putrescine concentration, [10] | growth, [12]
0.6125 µM | 1.42 | 0.929 | 0.872
1.25 µM | 1.59 | 1.35 | 0.904
2.5 µM | 1.98 | 1.27 | 0.925
5 µM | 1.94 | 1.13 | 1.05
10 µM | 1.25 | 0.82 | 0.764
20 µM | 0.41 | 0.673 | -0.0235
